Assay results: patent publication US11780845B2 (Relay Therapeutics, Inc., priority 2019, dated 2023)

Assays:
SNU-16 = assay: Cell SNU-16 assay; format: cell-based; conditions: Homo sapiens, SNU-16, SNU-16 cells
FGFR2 = FGFR2 (Homo sapiens (Human), UniProt P21802); assay: Biochemical FGFR2 Caliper assay
Chain of FGFR2 (P21802 22-821): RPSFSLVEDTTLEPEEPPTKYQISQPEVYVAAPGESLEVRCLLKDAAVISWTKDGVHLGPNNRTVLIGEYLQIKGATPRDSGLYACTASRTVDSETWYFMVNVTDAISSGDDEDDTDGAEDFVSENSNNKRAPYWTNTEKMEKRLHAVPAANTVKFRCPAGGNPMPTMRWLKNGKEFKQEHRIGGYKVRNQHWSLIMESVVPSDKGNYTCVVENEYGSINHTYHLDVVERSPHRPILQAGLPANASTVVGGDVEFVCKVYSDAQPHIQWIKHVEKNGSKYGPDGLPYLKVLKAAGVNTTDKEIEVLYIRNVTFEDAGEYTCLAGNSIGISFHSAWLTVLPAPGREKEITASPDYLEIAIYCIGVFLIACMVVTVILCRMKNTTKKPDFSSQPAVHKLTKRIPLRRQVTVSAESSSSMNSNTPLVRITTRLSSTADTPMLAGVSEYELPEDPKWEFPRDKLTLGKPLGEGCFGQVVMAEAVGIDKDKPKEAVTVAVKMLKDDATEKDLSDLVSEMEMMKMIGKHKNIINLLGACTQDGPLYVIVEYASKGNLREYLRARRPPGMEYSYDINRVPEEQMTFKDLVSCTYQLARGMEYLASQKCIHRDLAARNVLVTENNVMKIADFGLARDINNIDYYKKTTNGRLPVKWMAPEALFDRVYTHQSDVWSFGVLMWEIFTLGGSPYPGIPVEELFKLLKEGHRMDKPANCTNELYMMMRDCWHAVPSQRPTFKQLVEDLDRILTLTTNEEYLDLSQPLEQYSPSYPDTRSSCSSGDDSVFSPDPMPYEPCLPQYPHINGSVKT

Row | SMILES | IC50 (SNU-16) [µM] | IC50 (FGFR2) [µM]
1 | Cc1ccnc(Oc2ccc(-c3c(-c4ccc(C)nc4C)n(C)c4ncnc(N)c34)cc2F)n1 [Example 1206] | 0.25 to 1 | 0.25 to 1
2 | C#Cc1cc(C)c(-c2c(-c3ccc(Oc4nccc(C)n4)c(F)c3)c3c(N)ncnc3n2C(C)C)cn1 [Example 1213] | ≤ 0.1 | < 0.1
3 | C#Cc1ccc(-c2c(-c3ccc(Oc4nccc(C)n4)c(F)c3)c3c(N)ncnc3n2C(C)C)c(C)n1 [Example 1214] | ≤ 0.1 | < 0.1
4 | C#Cc1cc(C)c(-c2c(-c3ccc(Oc4nccc(C)n4)c(F)c3)c3c(N)ncnc3n2C)c(C)n1 [Example 1215] | ≤ 0.1 | < 0.1
5 | C#Cc1cc(CC)c(-c2c(-c3ccc(Oc4nccc(C)n4)c(F)c3)c3c(N)ncnc3n2C)cn1 [Example 1217] | ≤ 0.1 | < 0.1
6 | C#Cc1cc(CO)c(-c2c(-c3ccc(Oc4nccc(C)n4)c(F)c3)c3c(N)ncnc3n2C)cn1 [Example 1228] | ≤ 0.1 | < 0.1
7 | COCC#Cc1ncc(-c2c(-c3ccc(Oc4nccc(C)n4)cc3)c3c(N)ncnc3n2C)c(C)n1 [Example 1232] | ≤ 0.1 | < 0.1
8 | C#Cc1ncc(-c2c(-c3ccc(Oc4nccc(C)n4)c(F)c3)c3c(N)ncnc3n2C)c2ccccc12 [Example 1233] | ≤ 0.1 | < 0.1
9 | C#Cc1cc(C)c(-c2c(-c3ccc(Oc4ncccn4)c(F)c3)c3c(N)ncnc3n2C)cn1 [Example 1234] | ≤ 0.1 | < 0.1
10 | C#Cc1cc(-c2c(-c3ccc(Oc4nccc(C)n4)cc3)c3c(N)ncnc3n2C)n(C)n1 [Example 1236] | 1 to 100 | 1 to 100
11 | C#Cc1cc(-c2c(-c3ccc(Oc4nccc(C)n4)c(F)c3)c3c(N)ncnc3n2C)ccn1 [Example 1237] | ≤ 0.1 | 0.25 to 1
12 | C=C1CCc2ccc(-c3c(-c4ccc(Oc5nccc(C)n5)cc4)c4c(N)ncnc4n3C)cc2C1=O [Example 1242] | 1 to 100 | 0.1 to 0.25
13 | C#Cc1ccc(-c2c(-c3ccc(Oc4nccc(C)n4)c(F)c3)c3c(N)ncnc3n2C)c(CC)n1 [Example 1243] | ≤ 0.1 | < 0.1
14 | C#Cc1cc(C)c(-c2c(-c3ccc(Oc4nccc(C)n4)c(F)c3)c3c(N)ncnc3n2CCO)cn1 [Example 1245] | ≤ 0.1 | < 0.1
15 | C#Cc1cc(C)c(-c2c(-c3ccc(Oc4ccn(C)n4)c(F)c3)c3c(N)ncnc3n2C)cn1 [Example 1246] | ≤ 0.1 | < 0.1
16 | C#Cc1cc(C)c(-c2c(C3=CC[C@H](C(=O)N4CCC[C@H]4C)CC3)c3c(N)ncnc3n2C)cn1 [Example 1249] | 0.1 to 0.25 | 0.25 to 1
17 | C#Cc1cc(Cl)c(-c2c(-c3ccc(Oc4nccc(C)n4)c(F)c3)c3c(N)ncnc3n2C)cn1 [Example 1250] | ≤ 0.1 | < 0.1
18 | C#Cc1cc(C)c(-c2c(C3=CC[C@H](C(=O)N4CCC[C@H]4C#N)CC3)c3c(N)ncnc3n2C)cn1 [Example 1251] | ≤ 0.1 | < 0.1
19 | C#Cc1cc(C)c(-c2c(C3=CC[C@@H](C(=O)N4CCC[C@H]4C#N)CC3)c3c(N)ncnc3n2C)cn1 [Example 1252] | ≤ 0.1 | < 0.1
20 | C#Cc1cc(C(F)F)c(-c2c(-c3ccc(Oc4nccc(C)n4)c(F)c3)c3c(N)ncnc3n2C)cn1 [Example 1253] | ≤ 0.1 | < 0.1
21 | C#Cc1ncc(-c2c(-c3ccc(Oc4nccc(C)n4)c(F)c3)c3c(C)ncnc3n2C)c(C)c1F [Example 1255] | ≤ 0.1 | < 0.1

Row | SMILES | IC50 (SNU-16) [µM] | IC50 (FGFR2) [µM]
22 | C#Cc1cc(C)c(-c2c(C3=CC[C@H](C(=O)N4CCC[C@@H]4C)CC3)c3c(N)ncnc3n2C)cn1 [Example 1257] | 0.25 to 1 | 0.25 to 1
23 | C#Cc1ncc(-c2c(-c3ccc(C(=O)NCC(F)(F)F)c(OC)c3)c3c(N)ncnc3n2C)c(C)c1F [Example 1260] | ≤ 0.1 | < 0.1
24 | C#Cc1ncc(-c2c(-c3ccc(C(=O)NCC(C)C)c(F)c3)c3c(N)ncnc3n2C)c(C)c1F [Example 1261] | ≤ 0.1 | < 0.1
25 | C#Cc1cc(C)c(-c2c(-c3ccc(Oc4nccc(C)n4)c(C#N)c3)c3c(N)ncnc3n2C)cn1 [Example 1262] | ≤ 0.1 | < 0.1
26 | C#Cc1cc(C)c(-c2c(-c3ccc(Oc4nccc(C)n4)c(Cl)c3)c3c(N)ncnc3n2C)cn1 [Example 1263] | ≤ 0.1 | < 0.1
27 | C#Cc1ncc(-c2c(-c3ccc(Oc4nccc(C)n4)c(Cl)c3)c3c(N)ncnc3n2C)c(C)c1F [Example 1264] | ≤ 0.1 | < 0.1
28 | COC(=O)/C=C/CNc1ccc(-c2c(-c3ccc(Oc4nccc(C)n4)c(F)c3)c3c(N)ncnc3n2C)cc1 [Example 1265] | 0.1 to 0.25 | < 0.1
29 | Cc1ccnc(Oc2ccc(-c3c(-c4ccc(NCC#N)cc4)n(C)c4ncnc(N)c34)cc2F)n1 [Example 1266] | 0.25 to 1 | 1 to 100
30 | C=C(C)C(=O)Nc1ccc(-c2c(-c3ccc4c(c3)NCCN4C)c3c(N)ncnc3n2C)cc1 [Example 1267] | 1 to 100 | 1 to 100
31 | C=C(C)C(=O)Nc1ccc(-c2c(C3=COCCC3)c3c(N)ncnc3n2C)cc1 [Example 1268] | 1 to 100 | 1 to 100
32 | C=C(C)C(=O)Nc1ccc(-c2c(C3=CCCCO3)c3c(N)ncnc3n2C)cc1 [Example 1269] | 1 to 100 | 1 to 100
33 | C=C(C)C(=O)Nc1ccc(-c2c(-c3cc4cccnc4s3)c3c(N)ncnc3n2C)cc1 [Example 1270] | 0.25 to 1 | 0.25 to 1
34 | C=C(C)C(=O)Nc1ccc(-c2c(-c3ccc(-c4cccnc4)s3)c3c(N)ncnc3n2C)cc1 [Example 1271] | 1 to 100 | 1 to 100
35 | C=C(C)C(=O)Nc1ccc(-c2c(-c3ccc4ccncc4c3)c3c(N)ncnc3n2C)cc1 [Example 1272] | 1 to 100 | 1 to 100
36 | C=C(C)C(=O)Nc1ccc(-c2c(-c3coc4ccccc34)c3c(N)ncnc3n2C)cc1 [Example 1273] | 1 to 100 | 1 to 100
37 | C=C(C)C(=O)Nc1ccc(-c2c(-c3ccc4nc(C)oc4c3)c3c(N)ncnc3n2C)cc1 [Example 1274] | 1 to 100 | 1 to 100
38 | C=C(C)C(=O)Nc1ccc(-c2c(-c3cnn(C4CCCC4)c3)c3c(N)ncnc3n2C)cc1 [Example 1275] | 0.25 to 1 | 0.25 to 1
39 | C=C(C)C(=O)Nc1ccc(-c2c(-c3cnn(-c4ccccc4)c3C)c3c(N)ncnc3n2C)cc1 [Example 1276] | 1 to 100 | 1 to 100
40 | C=C(C)C(=O)Nc1ccc(-c2c(-c3ccc4cccnc4c3)c3c(N)ncnc3n2C)cc1 [Example 1277] | 1 to 100 | 0.25 to 1
41 | C=C(C)C(=O)Nc1ccc(-c2c(-c3ccc(-c4ccccn4)s3)c3c(N)ncnc3n2C)cc1 [Example 1278] | 0.25 to 1 | 0.25 to 1
42 | C=C(C)C(=O)Nc1ccc(-c2c(-c3ccc4nc(C)sc4c3)c3c(N)ncnc3n2C)cc1 [Example 1279] | 0.25 to 1 | 0.25 to 1

Row | SMILES | IC50 (SNU-16) [µM] | IC50 (FGFR2) [µM]
43 | C=C(C)C(=O)Nc1ccc(-c2c(-c3ccc4oc(C)nc4c3)c3c(N)ncnc3n2C)cc1 [Example 1280] | 0.25 to 1 | 0.25 to 1
44 | C=C(C)C(=O)Nc1ccc(-c2c(-c3cnn(-c4ccccc4)c3)c3c(N)ncnc3n2C)cc1 [Example 1281] | 0.25 to 1 | 1 to 100
45 | C=C(C)C(=O)Nc1ccc(-c2c(-c3ccc4ncccc4c3)c3c(N)ncnc3n2C)cc1 [Example 1282] | 1 to 100 | 1 to 100
46 | C=C(C)C(=O)Nc1ccc(-c2c(-c3ccc4c(c3)NC(=O)C4(C)C)c3c(N)ncnc3n2C)cc1 [Example 1283] | 1 to 100 | 1 to 100
47 | C=C(C)C(=O)Nc1ccc(-c2c(-c3cnc4ccccc4c3)c3c(N)ncnc3n2C)cc1 [Example 1284] | 1 to 100 | 1 to 100
48 | C=C(C)C(=O)Nc1ccc(-c2c(-c3cnn(-c4ccc(F)cc4)c3)c3c(N)ncnc3n2C)cc1 [Example 1285] | 1 to 100 | 0.25 to 1
49 | C=C(C)C(=O)Nc1ccc(-c2c(-c3ccc4cnccc4c3)c3c(N)ncnc3n2C)cc1 [Example 1286] | 0.25 to 1 | 0.25 to 1
50 | C=C(C)C(=O)Nc1ccc(-c2c(C3=CCC(C#N)CC3)c3c(N)ncnc3n2C)cc1 (stereo not shown) [Example 1287] | 1 to 100 | 1 to 100
51 | C=C(C)C(=O)Nc1ccc(-c2c(-c3ccc4occc4c3)c3c(N)ncnc3n2C)cc1 [Example 1288] | 1 to 100 | 1 to 100
52 | C=C(C)C(=O)Nc1ccc(-c2c(-c3ccc4c(c3)COCC4)c3c(N)ncnc3n2C)cc1 [Example 1289] | 1 to 100 | 1 to 100
53 | C=C(C)C(=O)Nc1ccc(-c2c(-c3ccc4[nH]nc(C)c4c3)c3c(N)ncnc3n2C)cc1 [Example 1290] | 1 to 100 | 1 to 100
54 | C=C(C)C(=O)Nc1ccc(-c2c(-c3cnn(-c4cccc(C(F)(F)F)c4)c3)c3c(N)ncnc3n2C)cc1 [Example 1291] | 1 to 100 | 1 to 100
55 | C=C(C)C(=O)Nc1ccc(-c2c(-c3ccc4c(c3)CCOC4)c3c(N)ncnc3n2C)cc1 [Example 1292] | 1 to 100 | 1 to 100
56 | C=C(C)C(=O)Nc1ccc(-c2c(-c3cnc(-c4ccccc4)s3)c3c(N)ncnc3n2C)cc1 [Example 1293] | 0.25 to 1 | 0.1 to 0.25
57 | C=C(C)C(=O)Nc1ccc(-c2c(-c3ccc4nc[nH]c4c3)c3c(N)ncnc3n2C)cc1 [Example 1294] | 1 to 100 | 0.25 to 1
58 | C=C(C)C(=O)Nc1ccc(-c2c(-c3ccc(N)nc3)c3c(N)ncnc3n2C)cc1 [Example 1295] | 1 to 100 | 1 to 100
59 | C=C(C)C(=O)Nc1ccc(-c2c(-c3ccc4[nH]ccc4c3)c3c(N)ncnc3n2C)cc1 [Example 1296] | 0.25 to 1 | 0.1 to 0.25
60 | C=C(C)C(=O)Nc1ccc(-c2c(-c3ccc4cc[nH]c4c3)c3c(N)ncnc3n2C)cc1 [Example 1297] | 0.25 to 1 | 0.25 to 1
61 | C=C(C)C(=O)Nc1ccc(-c2c(-c3cccc(O)c3)c3c(N)ncnc3n2C)cc1 [Example 1298] | 1 to 100 | 0.25 to 1
62 | C=C(C)C(=O)Nc1ccc(-c2c(-c3cccc(N)c3)c3c(N)ncnc3n2C)cc1 [Example 1299] | 1 to 100 | 1 to 100
